In patent US20230218573A1, “INDOLE COMPOUNDS FOR THE TREATMENT OF NEURODEGENERATIVE DISEASES” (GALYAN BIO, INC., priority 2020, published 2023):
Entries after “also recorded” stand apart in the source; their conditions may differ.

Tests used:
[1] = test system: Htt14A2.6 PC12 cells (mHttex1-GFP); assay: mHTT aggregation by filter retardation assay in Htt14A2.6 PC12 cells; format: cell-based; conditions: 24 hour treatment, different concentrations
Protocol: Compounds from the Biacore screening were selected for measurement of aggregation in a cell model Htt14A2.6 PC12. Htt14A2.6 PC12 cells express a GFP- tagged 97Q mHtt exon 1 fusion protein (mHttex1-GFP) in the presence of ponasterone A. Htt14A2.6 PC12 cells were grown in medium containing 5 µM ponasterone A for 20 hours prior to treatment with the compounds. Htt14A2.6 PC12 cells were plated at 50~60% confluency. Compound 22 was tested at a final concentration of 80 nM, 400 nM and 10 µM in cell culture medium for 24 hours. Htt14A2.6 PC12 cells were harvested, rinsed, homogenized in cold phosphate-buffered saline containing protease inhibitor cocktail, and centrifuged at 16000 g for 30 min at 4° C. twice. About 25 µg total protein of each sample was resolved in 8% SDS PAGE, transferred onto PVDF membrane, blotted with an anti-GFP antibody, and visualized by ECL detection. mHTT aggregates were quantified from the cell lysates by filter retardation assay (Wanker, E.E., et al., Methods Enzymol (1999); 309: 375-386).

LC3 (autophagic flux) = assay: Autophagic flux and LC3 stained area in STHdh 111/111 cells; format: cell-based, mouse
Protocol: Staining - Cells were permeabilized with 0.3% Triton X-100 in 4° C. PBS (pH 7.4 from ThermoFisher) for 10 minutes. Then the cells were washed two times with 4° C. PBS. Subsequently, cells are blocked with 3% NGS (normal goat serum from Thermo Fisher) in 4° C. PBS for 1 hour. Cells were incubated with primary antibodies in blocking buffer (PBS, 3% NGS, 0.02% NaN3) over night at 4° C. Primary antibodies were mouse antipolyglutamine monoclonal antibody 3B5H10 (Sigma-Aldrich) at 1:250 dilution and Guinea Pig anti-MAP2 polyclonal antibody (Synaptic Systems) at 1:500 dilution. […]
Fluorescence Imaging - Imaging sessions were performed on a confocal microscope system (Carl Zeiss Microscopy) equipped with a dual spinning disk unit (Yokogawa). […] The fluorescence images obtained of the immunofluorescence labelled tissue sections were quantified with the help of the “Image Processing and Analysis in Java” or short ImageJ software distributed under the GNU General Public License by the NIH (Rueden, C.T. et al., BMC Bioinformatics. 2017 Nov 29;18(1):529), i.e. the edition used was the Fiji distribution (Schindelin, J. et al., Nature methods. 2012 Jun 28;9(7):676-82). […]
Autophagic flux was calculated as the area stained with LC3 antibody per cell in STHdh 111/111 with autophagy inhibitor NH4Cl minus area stained with LC3 antibody per cell in STHdh 111/111 without the autophagy inhibitor NH4Cl.

[2] = Body weight of R6/2 mice under chronic administration; format: in vivo
Protocol: Methods - Total of 20 female and male R6/2 mice and 10 female and male wild-type littermate control mice (WT) were used in the study. The mice were genotyped and the R6/2 mice were divided into different treatment groups based on their litter and baseline body weight. The treatment with Vehicle or Compound 22(33 mg/kg; 5 ml/kg, i.p. QD) was started at 4 weeks of age after the baseline behavioral tests (FIG. 10). Body weights were measured at 3 weeks of age and twice a week until the end of the study.
The experimental groups were: • Group 1) 10 wild-type mice (mixed gender) treated with Vehicle (5 ml/kg, i.p., QD) starting at 4 weeks of age • Group 2) 10 R6/2 mice (mixed gender) treated with Vehicle (5 ml/kg, i.p., QD) starting at 4 weeks of age • Group 3) 10 R6/2 mice (mixed gender) treated with Compound 22 (33 mg/kg; 5 ml/kg, i.p. QD) starting at 4 weeks of age
44.3.7 - Compound Delivery and Dosing - Treatment with Compound 22 (33 mg/kg; 5 ml/kg, i.p. QD) or Vehicle was started at age week 4 and continued until the 12 weeks of age. The test articles were handled and stored and the dose formulations were prepared according to detailed instructions provided by the Sponsor.
44.3.8 - Body Weight - Body weight was measured starting at 3 weeks of age before treatment onset and two times per week on the same day (on Monday and Friday) until the end of the study.

mHTT = mHTT (Mus musculus, UniProt P42859, DEL28-30/G47A/INS49LLPQPQPP/INS60VA/L56P/P40L); assay: Diffuse mHTT levels in heat shocked STHdh 111/111 striatal cells by immunocytochemistry; conditions: STHdh 111/111; in comparison to untreated cells
Sequence of mHTT (P42859 with tags, fused parts or gaps DEL28-30/P40L/G47A/INS49LLPQPQPP/L56P/INS60VA): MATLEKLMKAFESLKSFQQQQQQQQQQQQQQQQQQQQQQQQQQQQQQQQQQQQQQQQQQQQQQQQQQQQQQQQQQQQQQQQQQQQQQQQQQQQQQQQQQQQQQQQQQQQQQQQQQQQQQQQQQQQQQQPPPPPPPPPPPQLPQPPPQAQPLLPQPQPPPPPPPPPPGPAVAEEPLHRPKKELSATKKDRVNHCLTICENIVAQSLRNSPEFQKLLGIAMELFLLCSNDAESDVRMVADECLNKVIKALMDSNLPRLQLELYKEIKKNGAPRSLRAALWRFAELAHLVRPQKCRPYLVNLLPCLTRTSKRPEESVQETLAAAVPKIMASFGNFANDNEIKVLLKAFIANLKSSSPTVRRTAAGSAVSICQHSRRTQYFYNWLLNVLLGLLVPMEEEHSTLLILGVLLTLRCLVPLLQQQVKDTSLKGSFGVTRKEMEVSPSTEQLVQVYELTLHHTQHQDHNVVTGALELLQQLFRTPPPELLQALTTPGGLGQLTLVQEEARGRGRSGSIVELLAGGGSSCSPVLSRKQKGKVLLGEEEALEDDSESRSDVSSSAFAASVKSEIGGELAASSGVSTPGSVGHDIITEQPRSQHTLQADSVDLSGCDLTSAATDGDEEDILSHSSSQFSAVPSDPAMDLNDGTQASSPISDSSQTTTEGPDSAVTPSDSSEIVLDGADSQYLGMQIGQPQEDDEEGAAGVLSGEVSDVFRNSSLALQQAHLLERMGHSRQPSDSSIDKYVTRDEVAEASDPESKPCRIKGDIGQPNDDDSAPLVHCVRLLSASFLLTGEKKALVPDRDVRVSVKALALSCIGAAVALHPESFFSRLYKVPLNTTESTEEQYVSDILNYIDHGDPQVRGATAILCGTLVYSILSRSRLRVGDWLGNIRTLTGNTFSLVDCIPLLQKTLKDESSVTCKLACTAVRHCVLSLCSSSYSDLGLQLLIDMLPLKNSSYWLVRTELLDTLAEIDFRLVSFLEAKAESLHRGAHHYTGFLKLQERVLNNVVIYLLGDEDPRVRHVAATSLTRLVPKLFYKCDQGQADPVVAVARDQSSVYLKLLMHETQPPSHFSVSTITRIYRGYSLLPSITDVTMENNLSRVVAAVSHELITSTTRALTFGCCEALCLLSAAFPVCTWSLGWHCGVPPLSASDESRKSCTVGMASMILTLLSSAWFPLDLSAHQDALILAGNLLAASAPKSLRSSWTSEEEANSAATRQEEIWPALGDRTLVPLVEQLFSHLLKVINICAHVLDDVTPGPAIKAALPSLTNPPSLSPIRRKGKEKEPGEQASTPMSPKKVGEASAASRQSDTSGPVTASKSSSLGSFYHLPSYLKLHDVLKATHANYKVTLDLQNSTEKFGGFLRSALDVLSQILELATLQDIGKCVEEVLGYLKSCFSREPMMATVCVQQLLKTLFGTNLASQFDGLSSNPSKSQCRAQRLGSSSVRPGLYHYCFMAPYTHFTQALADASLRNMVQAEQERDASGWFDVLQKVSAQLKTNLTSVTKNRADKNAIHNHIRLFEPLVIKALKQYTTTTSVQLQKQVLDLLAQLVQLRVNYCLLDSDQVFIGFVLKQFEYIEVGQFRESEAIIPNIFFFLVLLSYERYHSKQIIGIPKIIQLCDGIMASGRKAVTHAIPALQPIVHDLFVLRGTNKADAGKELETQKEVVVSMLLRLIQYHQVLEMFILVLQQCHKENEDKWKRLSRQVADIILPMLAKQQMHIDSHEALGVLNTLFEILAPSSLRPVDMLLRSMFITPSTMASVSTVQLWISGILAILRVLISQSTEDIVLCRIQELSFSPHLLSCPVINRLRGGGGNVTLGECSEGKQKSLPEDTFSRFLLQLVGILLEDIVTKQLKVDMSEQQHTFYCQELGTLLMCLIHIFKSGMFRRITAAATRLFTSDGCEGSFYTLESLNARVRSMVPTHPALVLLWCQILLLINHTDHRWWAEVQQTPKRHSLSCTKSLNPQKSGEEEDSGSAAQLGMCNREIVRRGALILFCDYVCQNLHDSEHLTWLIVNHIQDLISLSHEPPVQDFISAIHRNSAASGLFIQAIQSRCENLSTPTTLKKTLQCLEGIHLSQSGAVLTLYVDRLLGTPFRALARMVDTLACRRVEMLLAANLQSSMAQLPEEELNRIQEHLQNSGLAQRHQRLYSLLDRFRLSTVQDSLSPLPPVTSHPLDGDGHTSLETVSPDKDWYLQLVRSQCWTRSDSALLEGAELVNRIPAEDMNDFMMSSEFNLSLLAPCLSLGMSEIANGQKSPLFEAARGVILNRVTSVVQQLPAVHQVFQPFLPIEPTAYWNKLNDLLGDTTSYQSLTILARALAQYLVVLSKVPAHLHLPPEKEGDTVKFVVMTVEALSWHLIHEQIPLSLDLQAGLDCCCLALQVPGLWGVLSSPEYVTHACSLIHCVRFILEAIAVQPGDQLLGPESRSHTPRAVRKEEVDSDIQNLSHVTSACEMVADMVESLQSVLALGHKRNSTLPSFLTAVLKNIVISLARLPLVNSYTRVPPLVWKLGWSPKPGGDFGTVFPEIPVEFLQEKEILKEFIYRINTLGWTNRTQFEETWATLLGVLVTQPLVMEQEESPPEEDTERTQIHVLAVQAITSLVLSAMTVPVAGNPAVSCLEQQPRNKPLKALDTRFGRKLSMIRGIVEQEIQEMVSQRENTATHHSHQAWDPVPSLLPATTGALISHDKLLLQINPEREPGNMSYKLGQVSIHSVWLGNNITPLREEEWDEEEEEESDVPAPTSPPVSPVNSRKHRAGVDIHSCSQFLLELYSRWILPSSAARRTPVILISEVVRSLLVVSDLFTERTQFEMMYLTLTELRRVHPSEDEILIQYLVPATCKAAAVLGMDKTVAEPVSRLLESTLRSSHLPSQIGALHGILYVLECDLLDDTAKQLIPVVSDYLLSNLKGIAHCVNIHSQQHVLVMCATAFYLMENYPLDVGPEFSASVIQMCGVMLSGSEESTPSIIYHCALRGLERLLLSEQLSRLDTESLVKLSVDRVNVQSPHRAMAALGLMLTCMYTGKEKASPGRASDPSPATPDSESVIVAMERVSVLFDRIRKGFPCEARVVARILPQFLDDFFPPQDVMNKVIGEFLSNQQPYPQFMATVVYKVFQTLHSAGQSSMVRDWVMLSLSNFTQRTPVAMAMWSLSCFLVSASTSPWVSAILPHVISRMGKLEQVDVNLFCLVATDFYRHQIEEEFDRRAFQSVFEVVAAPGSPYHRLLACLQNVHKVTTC

In the case of Cc1[nH]c2ccc(C(=O)NCCN(C(C)C)C(C)C)cc2c1C [Compound 22], the “reduction of mHTT aggregation (filter retardation)” value [1] was “A reduction of aggregation of Htt14A2.6 PC12 was observed; also recorded: A reduction of mHTT in Htt14A2.6 PC12 cells was observed”, the autophagic flux (LC3 (autophagic flux); STHdh 111/111, LC3 area with NH4Cl minus without NH4Cl) was “positive autophagic flux” and the LC3 stained area (LC3 (autophagic flux); STHdh 111/111 neurons) was “decreased”. The “body weight versus vehicle treated R6/2 mice” value ([2]; 33 mg/kg i.p. QD from 4 to 12 weeks of age, pooled genders, females, males) was “no significant differences”, the “body weight loss versus untreated female R6/2 mice” value ([2]; female R6/2 mice, week 12, 33 mg/kg i.p. QD) was “significantly improved” and the “body weight loss improvement versus untreated male R6/2 mice” value ([2]; male R6/2 mice, week 12, 33 mg/kg i.p. QD) was “not observed”. The “Nuclear diffuse mHTT reduced by” value (mHTT) was 32%.
